Literature values as cited in article PMC2981028 (Cancer research, 2010).

Tests used:
[1] = biological target: type 1 insulin-like growth factor receptor (IGF-1R) (Homo sapiens, UniProt P08069); test: inhibition of IGF-1R phosphorylation in vitro; type: cell-based
insulin receptor (IR) = insulin receptor (IR) (Homo sapiens, UniProt P06213); test: inhibition of IR phosphorylation in vitro; type: cell-based
insulin receptor (IR), sequence (P06213 28-758): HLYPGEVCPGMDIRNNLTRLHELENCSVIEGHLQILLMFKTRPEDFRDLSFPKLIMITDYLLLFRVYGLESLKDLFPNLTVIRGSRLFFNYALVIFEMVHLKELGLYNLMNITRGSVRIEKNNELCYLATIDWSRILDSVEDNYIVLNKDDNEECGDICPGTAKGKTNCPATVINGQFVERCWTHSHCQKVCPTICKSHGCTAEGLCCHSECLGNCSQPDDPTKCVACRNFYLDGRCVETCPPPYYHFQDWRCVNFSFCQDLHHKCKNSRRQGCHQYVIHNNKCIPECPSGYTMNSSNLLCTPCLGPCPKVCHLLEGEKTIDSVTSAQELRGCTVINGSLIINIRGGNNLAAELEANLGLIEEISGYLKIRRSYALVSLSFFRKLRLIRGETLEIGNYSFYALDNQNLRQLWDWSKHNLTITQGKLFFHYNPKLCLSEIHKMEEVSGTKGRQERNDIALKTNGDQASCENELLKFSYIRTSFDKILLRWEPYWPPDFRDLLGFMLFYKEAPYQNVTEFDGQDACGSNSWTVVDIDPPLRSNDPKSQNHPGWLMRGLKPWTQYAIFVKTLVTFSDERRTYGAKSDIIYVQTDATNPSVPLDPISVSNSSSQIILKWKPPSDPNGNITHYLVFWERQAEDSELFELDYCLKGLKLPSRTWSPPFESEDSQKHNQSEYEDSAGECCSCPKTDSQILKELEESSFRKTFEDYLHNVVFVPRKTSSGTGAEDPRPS
insulin receptor (IR), sequence (P06213 763-1382): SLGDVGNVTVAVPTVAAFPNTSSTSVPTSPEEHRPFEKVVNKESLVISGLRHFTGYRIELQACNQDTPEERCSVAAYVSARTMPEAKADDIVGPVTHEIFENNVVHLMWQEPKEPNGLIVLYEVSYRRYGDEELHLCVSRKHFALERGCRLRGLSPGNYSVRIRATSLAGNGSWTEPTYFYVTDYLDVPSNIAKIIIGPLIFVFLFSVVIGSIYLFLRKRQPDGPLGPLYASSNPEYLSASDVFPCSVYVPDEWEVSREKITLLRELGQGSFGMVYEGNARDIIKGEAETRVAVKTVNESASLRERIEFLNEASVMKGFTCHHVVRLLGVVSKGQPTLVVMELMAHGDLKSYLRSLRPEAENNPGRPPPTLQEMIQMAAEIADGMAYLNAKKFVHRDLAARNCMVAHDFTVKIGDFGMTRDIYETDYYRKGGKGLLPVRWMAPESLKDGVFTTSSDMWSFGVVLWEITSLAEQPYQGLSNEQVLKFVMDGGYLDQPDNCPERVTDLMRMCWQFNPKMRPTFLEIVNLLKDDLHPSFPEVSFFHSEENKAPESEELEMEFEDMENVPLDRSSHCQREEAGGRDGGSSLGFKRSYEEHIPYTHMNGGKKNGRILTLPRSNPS

type 1 insulin-like growth factor receptor (IGF-1R), sequence (P08069 31-736): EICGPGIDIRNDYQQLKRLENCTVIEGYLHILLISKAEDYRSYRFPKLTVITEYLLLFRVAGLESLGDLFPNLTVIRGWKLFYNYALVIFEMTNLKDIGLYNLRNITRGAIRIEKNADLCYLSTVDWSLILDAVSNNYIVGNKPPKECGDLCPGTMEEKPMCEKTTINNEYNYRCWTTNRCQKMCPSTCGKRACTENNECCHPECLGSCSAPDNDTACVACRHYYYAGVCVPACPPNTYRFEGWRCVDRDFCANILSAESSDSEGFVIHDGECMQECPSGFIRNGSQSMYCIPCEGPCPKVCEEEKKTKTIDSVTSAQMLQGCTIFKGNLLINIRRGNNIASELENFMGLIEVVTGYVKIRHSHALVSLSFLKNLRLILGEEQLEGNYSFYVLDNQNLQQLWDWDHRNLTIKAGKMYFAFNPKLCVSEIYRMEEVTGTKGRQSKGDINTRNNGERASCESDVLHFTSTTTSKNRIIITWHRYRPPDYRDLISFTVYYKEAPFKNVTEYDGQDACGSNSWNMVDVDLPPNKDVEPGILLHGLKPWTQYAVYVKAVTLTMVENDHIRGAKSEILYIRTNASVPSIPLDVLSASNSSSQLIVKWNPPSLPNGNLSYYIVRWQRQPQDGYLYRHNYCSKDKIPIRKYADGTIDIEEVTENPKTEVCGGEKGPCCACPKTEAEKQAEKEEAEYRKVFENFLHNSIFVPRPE
type 1 insulin-like growth factor receptor (IGF-1R), sequence (P08069 741-1367): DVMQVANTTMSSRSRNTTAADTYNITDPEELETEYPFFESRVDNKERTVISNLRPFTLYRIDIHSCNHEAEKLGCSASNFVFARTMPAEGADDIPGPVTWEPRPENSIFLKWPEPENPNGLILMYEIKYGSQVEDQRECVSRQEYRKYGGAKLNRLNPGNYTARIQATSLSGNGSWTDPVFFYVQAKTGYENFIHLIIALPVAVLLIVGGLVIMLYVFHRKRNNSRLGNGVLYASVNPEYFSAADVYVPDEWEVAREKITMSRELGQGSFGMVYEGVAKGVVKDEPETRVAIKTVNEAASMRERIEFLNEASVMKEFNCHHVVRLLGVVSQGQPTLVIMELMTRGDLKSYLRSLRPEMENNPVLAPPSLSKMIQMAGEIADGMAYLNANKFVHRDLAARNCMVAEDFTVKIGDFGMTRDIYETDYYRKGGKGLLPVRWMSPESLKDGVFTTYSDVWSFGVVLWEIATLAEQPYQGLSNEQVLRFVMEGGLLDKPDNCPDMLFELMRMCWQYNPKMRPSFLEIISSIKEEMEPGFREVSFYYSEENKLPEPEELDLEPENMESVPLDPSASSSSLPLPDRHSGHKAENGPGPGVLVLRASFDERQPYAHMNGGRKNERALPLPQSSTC

Question: Which IC50 [1] does the source give for `Cc1cc(Nc2cc(C)[nH]n2)nc(N2CCC[C@H]2c2cc(-c3ccccn3)no2)n1` [AZ12253801] here?
Answer: The IC50 was 2.1 nM.

Question: What about the IC50 (insulin receptor (IR)) of the same molecule?
Answer: The IC50 was 19 nM.
